Laboratory results published in US20210403567A1, “METHODS OF TREATING CERVICAL CANCER BY ADMINISTERING A PD-1 INHIBITOR” (priority 2020, published 2021).
“Also recorded” adds a separate entry of the source. Like-named read-outs stand apart in the source and are kept apart here.

How the values were obtained:
[1] = system: recurrent or metastatic cervical cancer; experiment: Phase 3 trial, cemiplimab versus IC chemotherapy: quality of life, EORTC QLQ-C30 (GHS/QoL, functioning and symptom scales), MMRM LS mean change from baseline; type: in vivo, human
Procedure: QOL is measured by the EORTC QLQ-C30.
Quality of Life Questionnaires: Patient-reported outcomes are measured using the validated patient self-administered EORTC QLQ-C30 questionnaire. Patients are asked to complete these questionnaires prior to any study procedures being performed at a given study visit (during the on-study/treatment and follow-up periods).
QoL: Longitudinal change from baseline at each PRO assessment in the GHS/QoL and PF scales was analyzed using a mixed model with repeated measures (MMRM). Higher scores on these scales indicate better health status/function. […] The model generated least squares (LS) mean estimates, standard errors, 95% CIs and p-values (where applicable) for mean changes from baseline on each PRO assessment.
At baseline and Day 1 of each treatment cycle (up to 16), patients were administered the EORTC QLQ-030. Mixed-effects repeated measures models estimated least squares (LS) mean change from baseline across all scales. Responder analyses determined the proportions with clinically meaningful (using 10-point threshold) improvement or deterioration, or stability on QLQ-030.

[2] = system: recurrent or metastatic cervical cancer that has progressed after first-line platinum-based treatment
cervical cancer = conditions: durable responses; cited from earlier work
[3] = SCC patients, Overall Across Cycles
[4] = overall population, Overall Across Cycles
[5] = cemiplimab vs Gemcitabine (n = 108 vs 121)
[6] = cemiplimab vs Irinotecan (n = 26 vs 19)
[7] = cemiplimab vs Pemetrexed (n = 119 vs […])
[8] = cemiplimab vs Topotecan (n = 20 vs 21)
[9] = cemiplimab vs Vinorelbine (n = 31 vs 32)
[10] = subgroup with IC chemotherapy selected prior to randomisation: Gemcitabine (n = 108 vs 121)
[11] = subgroup with IC chemotherapy selected prior to randomisation: Irinotecan (n = 26 vs 19)

cemiplimab
LS mean change from baseline, EORTC QLQ-C30 Physical Functioning ([1]; SCC patients, C6D1): 0.82 | Difference in LS mean change, Cemiplimab versus Chemotherapy, GHS/QoL ([1]; SCC patients, C7D1): 11.25 | Difference in LS mean change, Cemiplimab versus Chemotherapy, Physical Functioning ([1]; SCC patients, C7D1): 14.30 | LS mean change from baseline, EORTC QLQ-C30 GHS/QoL ([1]; SCC patients, C7D1): 2.09 | LS mean change from baseline, EORTC QLQ-C30 Physical Functioning ([1]; SCC patients, C7D1): −0.07 | Difference in LS mean change, Cemiplimab versus Chemotherapy, GHS/QoL [1, 3]: 8.49 | Difference in LS mean change, Cemiplimab versus Chemotherapy, Physical Functioning [1, 3]: 8.35 | LS mean change from baseline, EORTC QLQ-C30 GHS/QoL [1, 3]: 1.18 | LS mean change from baseline, EORTC QLQ-C30 Physical Functioning [1, 3]: 1.01 | Difference in LS mean change, Cemiplimab versus Chemotherapy, GHS/QoL ([1]; overall population, C2D1): 3.25 | LS mean change from baseline, EORTC QLQ-C30 GHS/QoL ([1]; overall population, C2D1): −1.03 | LS mean change from baseline, EORTC QLQ-C30 Physical Functioning ([1]; overall population, C2D1): −2.41 | Difference in LS mean change, Cemiplimab versus Chemotherapy, GHS/QoL ([1]; overall population, C3D1): 7.41 | Difference in LS mean change, Cemiplimab versus Chemotherapy, Physical Functioning ([1]; overall population, C3D1): 6.02 | LS mean change from baseline, EORTC QLQ-C30 GHS/QoL ([1]; overall population, C3D1): 1.19 | LS mean change from baseline, EORTC QLQ-C30 Physical Functioning ([1]; overall population, C3D1): 0.49 | Difference in LS mean change, Cemiplimab versus Chemotherapy, GHS/QoL ([1]; overall population, C4D1): 10.55 | Difference in LS mean change, Cemiplimab versus Chemotherapy, Physical Functioning ([1]; overall population, C4D1): 932 | LS mean change from baseline, EORTC QLQ-C30 GHS/QoL ([1]; overall population, C4D1): 4.47 | LS mean change from baseline, EORTC QLQ-C30 Physical Functioning ([1]; overall population, C4D1): 2.38 | Difference in LS mean change, Cemiplimab versus Chemotherapy, GHS/QoL ([1]; overall population, C5D1): 5.66 | Difference in LS mean change, Cemiplimab versus Chemotherapy, Physical Functioning ([1]; overall population, C5D1): 6.74 | LS mean change from baseline, EORTC QLQ-C30 GHS/QoL ([1]; overall population, C5D1): 0.48 | LS mean change from baseline, EORTC QLQ-C30 Physical Functioning ([1]; overall population, C5D1): −1.27 | Difference in LS mean change, Cemiplimab versus Chemotherapy, GHS/QoL ([1]; overall population, C6D1): 5.44 | Difference in LS mean change, Cemiplimab versus Chemotherapy, Physical Functioning ([1]; overall population, C6D1): 6.93 | LS mean change from baseline, EORTC QLQ-C30 GHS/QoL ([1]; overall population, C6D1): −0.29 | LS mean change from baseline, EORTC QLQ-C30 Physical Functioning ([1]; overall population, C6D1): −1.34 | Difference in LS mean change, Cemiplimab versus Chemotherapy, GHS/QoL ([1]; overall population, C7D1): 8.30 | Difference in LS mean change, Cemiplimab versus Chemotherapy, Physical Functioning ([1]; overall population, C7D1): 11.66 | LS mean change from baseline, EORTC QLQ-C30 GHS/QoL ([1]; overall population, C7D1): 3.32 | LS mean change from baseline, EORTC QLQ-C30 Physical Functioning ([1]; overall population, C7D1): −0.10 | Difference in LS mean change, Cemiplimab versus Chemotherapy, GHS/QoL ([1]; overall population, C8D1): 14.08 | Difference in LS mean change, Cemiplimab versus Chemotherapy, Physical Functioning ([1]; overall population, C8D1): 12.96 | LS mean change from baseline, EORTC QLQ-C30 GHS/QoL ([1]; overall population, C8D1): −1.09 | LS mean change from baseline, EORTC QLQ-C30 Physical Functioning ([1]; overall population, C8D1): −0.89 | course of GHS/QoL from baseline ([1]; overall population, EORTC QLQ-C30): improved or maintained GHS/QoL from baseline; also recorded: generally improve or maintain their baseline GHS/QOL | Difference in LS mean change, Cemiplimab versus Chemotherapy, GHS/QoL [1, 4]: 7.81 | Difference in LS mean change, Cemiplimab versus Chemotherapy, Physical Functioning [1, 4]: 8.26 | LS mean change from baseline, EORTC QLQ-C30 GHS/QoL [1, 4]: 1.01 | LS mean change from baseline, EORTC QLQ-C30 Physical Functioning [1, 4]: −0.45 | OS HR, cemiplimab vs individual IC chemotherapy [2, 5]: HR; 0.76 | PFS HR, cemiplimab vs individual IC chemotherapy [2, 5]: HR; 0.73 | OS HR, cemiplimab vs individual IC chemotherapy [2, 6]: HR; 0.69 | PFS HR, cemiplimab vs individual IC chemotherapy [2, 6]: HR; 0.77 | OS HR, cemiplimab vs individual IC chemotherapy [2, 7]: HR; 0.71 | PFS HR, cemiplimab vs individual IC chemotherapy [2, 7]: HR; 0.70 | OS HR, cemiplimab vs individual IC chemotherapy [2, 8]: HR; 0.78 | PFS HR, cemiplimab vs individual IC chemotherapy [2, 8]: HR; 0.90 | OS HR, cemiplimab vs individual IC chemotherapy [2, 9]: HR; 0.77 | PFS HR, cemiplimab vs individual IC chemotherapy [2, 9]: HR; 1.21 | OS, PFS and ORR versus each IC chemotherapy treatment ([2]; gemcitabine, pemetrexed, vinorelbine, topotecan, irinotecan subgroups): improvements with cemiplimab versus each IC chemotherapy treatment | Median OS (95% CI) [2, 10]: 10.7 (9.2-13.3) months | Median PFS (95% CI) [2, 10]: 2.8 (2.6-4.3) months | ORR [2, 10]: 17.6% | Median OS (95% CI) [2, 11]: 15.8 (11.2-NE) months | Median PFS (95% CI) [2, 11]: 6.9 (1.9-13.8) months | ORR [2, 11]: 23.1% | responding patients in dose escalation (cervical cancer): 2/3
